Test results: patent US6964949B2, “Pharmaceutical compositions for promoting the growth of gram-positive bacilli and increasing the acidity in the vagina and the use thereof” (Shanghai Jiao Da Onlly Co., Ltd., priority 2000, dated 2005)

Legend:
Assay type in all cases: cell-based
Conditions in all cases: 1.0% yeast extract, pH 6.2, candle jar, 37° C.
[1] = test system: vaginal secretion specimen of a patient suffering from typical bacterial vaginosis; experiment: Experiment Example 2: pH of culture samples (production of acids)
Source text: (§1) • (1)The preparation of the compositions: Different saccharides were used respectively to prepare the following compositions according to the methods mentioned above: glucose, fructose, galactose, mannose, maltose, sucrose, lactose, lactulose, mycose, cellobiose, melibiose, melitose, malto-oligosaccharide, isomaltooligosaccharide and fructooligosaccharide, dextrin, starch, and glycogen: • A. 5% glucose, 1.0% yeast extract, 1.6% xanthan gum, pH adjusted to 6.2; • B. 5% fructose, 1.0% yeast extract, 1.6% xanthan gum, pH adjusted to 6.2; • C. 5% galactose, 1.0% yeast extract, 1.6% xanthan gum, pH adjusted to 6.2; • D. 5% mannose, 1.0% yeast extract, 1.6% xanthan gum, pH adjusted to 6.2; • E. 10.0% maltose, 1.0% yeast extract, 1.6% xanthan gum, pH adjusted to 6.2; • F. 10.0% sucrose, 1.0% yeast extract, 1.6% xanthan gum, pH adjusted to 6.2; • G. 10.0% lactose, 1.0% yeast extract, 1.6% xanthan gum, pH adjusted to 6.2; • H. 10.0% lactulose, 1.0% yeast extract, 1.6% xanthan gum, pH adjusted to 6.2; • I. 10.0% cellobiose, 1.0% yeast extract, 1.6% xanthan gum, pH adjusted to 6.2; • J. 10.0% mycose, 1.0% yeast extract, 1.6% xanthan gum, pH adjusted to 6.2; • K. 10.0% melibiose, 1.0% yeast extract, 1.6% xanthan gum, pH adjusted to 6.2; • L. 10.0% melitose, 1.0% yeast extract, 1.6% xanthan gum, pH adjusted to 6.2; • M. 10.0% maltooligosaccharide, 1.0% yeast extract, 1.6% xanthan gum, pH adjusted to 6.2; • N. 10.0% isomaltooligosaccharide, 1.0% yeast extract, 1.6% xanthan gum, pH adjusted to 6.2; • O. 10.0% fructooligosaccharide, 1.0% yeast extract, 1.6% xanthan gum, pH adjusted to 6.2; • P. 10.0% dextrin, 1.0% yeast extract, 0.5% xanthan gum, pH adjusted to 6.2; • Q. 10.0% starch, 1.0% yeast extract, pH adjusted to 6.2; • R. 10.0% glycogen, 1.0% yeast extract, 1.6% xanthan gum, pH adjusted to 6.2. • (2)The preparation of the test tubes: The compositions prepared above were filled into test tubes, with each tube containing 5 ml, sterilized, and kept until use for experiment. • (3) Specimen suspension: Vaginal secretion was taken from one of the patients suffering from typical bacterial vagmosis with a cotton swab, then the swab was washed in 2 ml sterilized Trypcase-soy Broth immediately, and thus the specimen suspension was ready. […] Then the tubes were placed in a candle jar and cultivated at 37° C. After 24 hours and 48 hours' culture, culture samples were taken respectively from each of the tubes, then the Gram smears of the samples were observed and the pH values of culture samples were tested. […] Meanwhile the pH values in most of the composition tubes decreased to different levels. […] And maltose and sucrose exert better effect in promoting the growth of Gram-positive bacilli and the production of acids than that of the other kinds of oligosaccharides.

[2] = test system: Gram-negative bacilli; experiment: Experiment Example 2: comparison of saccharides, specimen culture, Gram smear
Source text: as §1

[3] = test system: Gram-positive cocci; experiment: as above
Source text: as §1

[4] = test system: Gram-negative cocci; experiment: as above
Source text: as §1

[5] = test system: Gram-positive bacilli; experiment: as above
Source text: as §1

[6] = 10.0% saccharide, 1.6% xanthan gum (dextrin 0.5%, starch none)
[7] = 5% saccharide, 1.6% xanthan gum

Row | Compound | pH, 24 hours-culture [1, 6] | pH, 48 hours-culture [1, 6] | Bacteria G − b (Gram-negative bacilli), 24 hours-culture [2, 6] | Bacteria G − b (Gram-negative bacilli), 48 hours-culture [2, 6] | Bacteria G + c (Gram-positive cocci), 24 hours-culture [3, 6] | Bacteria G + c (Gram-positive cocci), 48 hours-culture [3, 6] | Bacteria G − c (Gram-negative cocci), 24 hours-culture [4, 6] | Bacteria G − c (Gram-negative cocci), 48 hours-culture [4, 6] | Bacteria G + b (Gram-positive bacilli), 24 hours-culture [5, 6] | Bacteria G + b (Gram-positive bacilli), 48 hours-culture [5, 6] | pH, 24 hours-culture [1, 7] | pH, 48 hours-culture [1, 7] | Bacteria G − b (Gram-negative bacilli), 24 hours-culture [2, 7] | Bacteria G − b (Gram-negative bacilli), 48 hours-culture [2, 7] | Bacteria G + c (Gram-positive cocci), 24 hours-culture [3, 7] | Bacteria G + c (Gram-positive cocci), 48 hours-culture [3, 7] | Bacteria G − c (Gram-negative cocci), 24 hours-culture [4, 7] | Bacteria G − c (Gram-negative cocci), 48 hours-culture [4, 7] | Bacteria G + b (Gram-positive bacilli), 24 hours-culture [5, 7] | Bacteria G + b (Gram-positive bacilli), 48 hours-culture [5, 7]
1 | OC[C@H]1O[C@@H](O[C@@H]2[C@@H](CO)OC(O)(CO)[C@H]2O)[C@H](O)[C@@H](O)[C@H]1O (mixture of isomers) [Lactulose, lactulose] | 5.8-6.2 | 6.2 | G − b, + (1-9 bacteria per field of vision under oil-immersion lens) | G − b, + (1-9 bacteria per field of vision under oil-immersion lens) | G + c, + (1-9 bacteria per field of vision under oil-immersion lens) | G + c, + (1-9 bacteria per field of vision under oil-immersion lens) | G − c, − (No or less than one bacterium per field of version under oil-immersion lens) | G − c, − (No or less than one bacterium per field of version under oil-immersion lens) | G + b, +++ (About 100 bacteria or more per field vision under oil-immersion lens, even uncountable) | G + b, ++ (About 10-99 bacteria per field of vision under oil-immersion lens) |  |  |  |  |  |  |  |  |  | 
2 | O=C[C@H](O)[C@@H](O)[C@H](O[C@@H]1O[C@H](CO)[C@@H](O)[C@H](O)[C@H]1O)[C@H](O)CO [Cellobiose, cellobiose] | 5.8 | 5.8 | G − b, + (1-9 bacteria per field of vision under oil-immersion lens) | G − b, + (1-9 bacteria per field of vision under oil-immersion lens) | G + c, + (1-9 bacteria per field of vision under oil-immersion lens) | G + c, + (1-9 bacteria per field of vision under oil-immersion lens) | G − c, − (No or less than one bacterium per field of version under oil-immersion lens) | G − c, − (No or less than one bacterium per field of version under oil-immersion lens) | G + b, ++ (About 10-99 bacteria per field of vision under oil-immersion lens) | G + b, ++ (About 10-99 bacteria per field of vision under oil-immersion lens) |  |  |  |  |  |  |  |  |  | 
3 | O=C(CO)[C@@H](O)[C@H](O)[C@H](O)CO [Fructose, fructose] |  |  |  |  |  |  |  |  |  |  | 5.4-5.8 | 5.4-5.8 | G − b, + (1-9 bacteria per field of vision under oil-immersion lens) | G − b, + (1-9 bacteria per field of vision under oil-immersion lens) | G + c, + (1-9 bacteria per field of vision under oil-immersion lens) | G + c, + (1-9 bacteria per field of vision under oil-immersion lens) | G − c, − (No or less than one bacterium per field of version under oil-immersion lens) | G − c, − (No or less than one bacterium per field of version under oil-immersion lens) | G + b, ++ (About 10-99 bacteria per field of vision under oil-immersion lens) | G + b, +++ (About 100 bacteria or more per field vision under oil-immersion lens, even uncountable)
4 | O=C[C@H](O)[C@@H](O)[C@@H](O)[C@H](O)CO [Galactose, galactose] |  |  |  |  |  |  |  |  |  |  | 6.7 | 6.7 | G − b, − (No or less than one bacterium per field of version under oil-immersion lens) | G − b, + (1-9 bacteria per field of vision under oil-immersion lens) | G + c, ++ (About 10-99 bacteria per field of vision under oil-immersion lens) | G + c, ++ (About 10-99 bacteria per field of vision under oil-immersion lens) | G − c, − (No or less than one bacterium per field of version under oil-immersion lens) | G − c, − (No or less than one bacterium per field of version under oil-immersion lens) | G + b, ++ (About 10-99 bacteria per field of vision under oil-immersion lens) | G + b, + (1-9 bacteria per field of vision under oil-immersion lens)
5 | OC[C@H]1O[C@@H](O[C@H]2[C@H](O)[C@@H](O)C(O)O[C@@H]2CO)[C@H](O)[C@@H](O)[C@H]1O (stereo partly shown) [Lactose, lactose] | 5.8 | 5.1-5.4 | G − b, + (1-9 bacteria per field of vision under oil-immersion lens) | G − b, + (1-9 bacteria per field of vision under oil-immersion lens) | G + c, +++ (About 100 bacteria or more per field vision under oil-immersion lens, even uncountable) | G + c, + (1-9 bacteria per field of vision under oil-immersion lens) | G − c, − (No or less than one bacterium per field of version under oil-immersion lens) | G − c, − (No or less than one bacterium per field of version under oil-immersion lens) | G + b, ++ (About 10-99 bacteria per field of vision under oil-immersion lens) | G + b, ++ (About 10-99 bacteria per field of vision under oil-immersion lens) |  |  |  |  |  |  |  |  |  | 
6 | OC[C@H]1O[C@H](OCC2O[C@@H](O)[C@H](O)[C@@H](O)[C@@H]2O)[C@H](O)[C@@H](O)[C@H]1O (stereo partly shown) [Melibiose, melibiose] | 6.2 | 5.8 | G − b, ++ (About 10-99 bacteria per field of vision under oil-immersion lens) | G − b, ++ (About 10-99 bacteria per field of vision under oil-immersion lens) | G + c, + (1-9 bacteria per field of vision under oil-immersion lens) | G + c, + (1-9 bacteria per field of vision under oil-immersion lens) | G − c, + (1-9 bacteria per field of vision under oil-immersion lens) | G − c, − (No or less than one bacterium per field of version under oil-immersion lens) | G + b, + (1-9 bacteria per field of vision under oil-immersion lens) | G + b, ++ (About 10-99 bacteria per field of vision under oil-immersion lens) |  |  |  |  |  |  |  |  |  | 
7 | OC[C@H]1O[C@H](OC[C@H]2O[C@H](O[C@]3(CO)O[C@H](CO)[C@@H](O)[C@@H]3O)[C@H](O)[C@@H](O)[C@@H]2O)[C@H](O)[C@@H](O)[C@H]1O [Melitose, melitose] | 6.7 | 5.8 | G − b, + (1-9 bacteria per field of vision under oil-immersion lens) | G − b, ++ (About 10-99 bacteria per field of vision under oil-immersion lens) | G + c, + (1-9 bacteria per field of vision under oil-immersion lens) | G + c, + (1-9 bacteria per field of vision under oil-immersion lens) | G − c, + (1-9 bacteria per field of vision under oil-immersion lens) | G − c, − (No or less than one bacterium per field of version under oil-immersion lens) | G + b, ++ (About 10-99 bacteria per field of vision under oil-immersion lens) | G + b, +++ (About 100 bacteria or more per field vision under oil-immersion lens, even uncountable) |  |  |  |  |  |  |  |  |  | 
